Laboratory results reported in patent US10065934B2, “Substituted urea derivatives and pharmaceutical uses thereof” (SUNSHINE LAKE PHARMA CO., LTD., priority 2014, dated 2018).
Where two headings read alike, the source gives them in different places. Blank lines part the entries; values can stand above or below the compound they belong to.

Key:
FLT3 kinase = target: T1, FLT3 kinase (Homo sapiens, UniProt P36888); experiment: In vitro enzymatic inhibitory activity (kinase reaction, FAM-labeled peptide); format: biochemical; details: in vitro enzymatic inhibition
T1 sequence (P36888 27-993): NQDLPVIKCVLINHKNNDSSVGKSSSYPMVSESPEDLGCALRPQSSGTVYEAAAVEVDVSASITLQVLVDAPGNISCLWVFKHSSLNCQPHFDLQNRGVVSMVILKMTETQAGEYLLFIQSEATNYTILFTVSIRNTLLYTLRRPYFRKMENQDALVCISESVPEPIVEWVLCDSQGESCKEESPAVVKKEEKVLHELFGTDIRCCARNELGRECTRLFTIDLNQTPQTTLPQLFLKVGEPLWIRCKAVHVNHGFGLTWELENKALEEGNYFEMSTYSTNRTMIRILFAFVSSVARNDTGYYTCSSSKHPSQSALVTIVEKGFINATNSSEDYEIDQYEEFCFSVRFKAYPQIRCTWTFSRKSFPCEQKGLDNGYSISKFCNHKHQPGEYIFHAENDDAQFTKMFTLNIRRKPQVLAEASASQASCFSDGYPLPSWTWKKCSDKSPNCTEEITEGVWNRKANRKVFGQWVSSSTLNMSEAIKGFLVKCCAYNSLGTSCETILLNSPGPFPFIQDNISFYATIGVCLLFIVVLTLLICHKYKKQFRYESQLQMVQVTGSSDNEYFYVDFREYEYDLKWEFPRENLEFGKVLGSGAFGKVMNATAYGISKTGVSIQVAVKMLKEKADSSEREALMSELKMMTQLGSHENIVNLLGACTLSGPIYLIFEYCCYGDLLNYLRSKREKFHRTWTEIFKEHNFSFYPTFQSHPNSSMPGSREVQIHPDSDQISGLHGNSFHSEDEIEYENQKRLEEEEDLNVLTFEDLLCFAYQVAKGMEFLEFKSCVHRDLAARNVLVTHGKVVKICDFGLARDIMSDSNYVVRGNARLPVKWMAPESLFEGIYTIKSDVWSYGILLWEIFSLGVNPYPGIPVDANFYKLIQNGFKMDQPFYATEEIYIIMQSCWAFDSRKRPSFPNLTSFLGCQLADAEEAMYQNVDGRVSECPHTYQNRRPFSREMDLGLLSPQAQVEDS

MV-4-11 cell = experiment: In vitro cytology inhibitory activity (MV-4-11 cell proliferation, cell viability luminescence); format: cell-based; details: Homo sapiens, MV4-11; MV-4-11 cells, 72 h incubation
Method: Cell assay condition was shown below:
a. A complete medium was prepared and mixed well. b. Cell was recovered, and cell lines of between about two generations in good condition of growth were selected. c. The cell culture flasks were removed from the incubator, and the labeled cell name on the bottles, culture medium type and cell algebra were checked. d. The cell suspension was pipette into a centrifuge tube, and centrifuged at 800-1000 rpm for 3-5 minutes. e. Cell supernatant of the centrifuge tube was aspirated. f. Appropriate volume of culture medium was added into the centrifuge tube, and the cells were resuspended by gentle pipetting uniform. g. Vi-Cell XR cytometer was used for count. h. The cell suspension was adjusted to the appropriate concentration. i. The cell suspension was added to the bottom wall of the white 96-well plate, 100 microliters/well. Cells name, kind of board density and date were detailed labeled, and the culture plate was placed in CO2 incubator overnight.
2. Preparation and Addition of the Test Compounds
i) Preparation of test compound plates by diluting to 10 concentrations with DMSO: first, the test compound stock solution was prepared by dissolving a weighed compound in DMSO to a concentration of 10 mM, and then diluted to the concentration of 4 mM, which was then diluted to the concentration of 0.4 mM used as the highest concentration for testing with DMSO. The highest concentration was sequentially followed by 3-fold dilution for a total of 10 concentrations. Staurosporine was the positive control drug. ii) Addition of test compounds: a. 0.5 μL of test compound prepared above in compound plate was added into the cell culture plate that had been incubated overnight. Then the culture plate was incubated in an incubator at 37° C. for 72 hours.
3. Detection and Analysis
a. 72 hours after the compound treatment, cells was observed under an inverted microscope morphology, and cell growth state in DMSO control well was normal, there was no contamination. b. The cell culture plate was placed in equilibrium at room temperature for 30 minutes. c. The cell viability detection reagent at 100 μL/well was placed into culture plate. d. The mixture in culture plate was mixed two minutes in the vibration plate machine to induce cell lysis. e. 96-well plate was placed for 10 minutes at room temperature, making it stable luminescent signal. f. White base film was pasted on the bottom of the culture plate, and the plate was tested by using Flexstation3 (related to: light, integration time 500 ms). g. Experimental results were recorded and analyzed.

[1] = Evaluation of pharmacokinetic activity in male SD rats (iv and oral); format: in vivo; details: rat, plasma; for Cmax: read-out: Cmax
Method: 1. Preparation of the Test Compound Solutions
The test compound solutions were prepared using appropriate amounts of 5% DMSO, 5% KolliphorHS15 and 90% Saline to dissolve each compound completely.
140-190 g male SD rats were randomly divided into two groups. One group was administered through intravenous drug delivery with the dosage of 1.0 or 2.0 mg/kg, and the other group was administered by oral with the dosage of 5.0 mg/kg. For intravenous administration, caudal vein blood samples at the time points of 0.0833, 0.25, 0.5, 1.0, 2.0, 4.0, 6.0, 8.0 and 24 h were collected after drug administration (the time point of drug administration was set as 0 h); and for oral administration, caudal vein blood samples at the time points of 0.25, 0.5, 1.0, 2.0, 4.0, 6.0, 8.0 and 24 h were collected after drug administration (the time point of drug administration was set as 0 h). Appropriate range of standard curve was established according to the sample concentration, and the test compound concentrations in plasma sample were measured by LC-MS/MS analysis. Pharmacokinetic parameters were calculated by non-compartmental method using WinNonLin 6.3 software based on drug concentration-time curves.

Structure (SMILES): CC(C)(C)c1cc(NC(=O)Nc2ccc(C#Cc3ccc(OCCCN4CCOCC4)c(F)c3)cc2)no1 [Example 1, 1-(5-(tert-Butyl)isoxazol-3-yl)-3-(4-((3-fluoro-4-(3-morpholinopropoxy)phenyl)ethynyl)phenyl)urea]
IC50 (FLT3 kinase): 115 nM

Structure (SMILES): CC(C)(C)c1cc(NC(=O)Nc2ccc(C#Cc3ccc(OCCCN4CCOCC4)c(Cl)c3)cc2)no1 [Example 2, 1-(5-(tert-Butyl)isoxazol-3-yl)-3-(4-((3-chloro-4-(3-morpholinopropoxy)phenyl)ethynyl)phenyl) urea]
IC50 (FLT3 kinase): 75 nM

Structure (SMILES): CC(C)(C)c1cc(NC(=O)Nc2ccc(C#Cc3ccc(OCCCN4CCOCC4)c(C(F)(F)F)c3)cc2)no1 [Example 3, 1-(5-(tert-Butyl)isoxazol-3-yl)-3-(4-((4-(3-morpholinopropoxy)-3-(trifluoromethyl)phenyl)ethynyl)phenyl)urea]
IC50 (FLT3 kinase): 62 nM

Structure (SMILES): CC(C)(C)c1cc(NC(=O)Nc2ccc(C#Cc3ccc(OCCCN4CCOCC4)cc3Cl)cc2)no1 [Example 5, 1-(5-(tert-Butyl)isoxazol-3-yl)-3-(4-((2-chloro-4-(3-morpholinopropoxy)phenyl)ethynyl)phenyl)urea]
IC50 (FLT3 kinase): 189 nM

Structure (SMILES): CC(C)(C)c1cc(NC(=O)Nc2ccc(C#Cc3cnc4ccc(OCCCN5CCOCC5)nn34)cc2)no1 [Example 7, 1-(5-(tert-Butyl)isoxazol-3-yl)-3-(4-((6-(3-morpholinopropoxy)imidazo[1,2-b]pyridazin-3-yl)ethynyl)phenyl)urea]
IC50 (MV-4-11 cell): 3.2 nM

Structure (SMILES): CC(C)(C)c1cc(NC(=O)Nc2ccc(C#Cc3cnc4c(OCCN5CCOCC5)ccnn34)cc2)no1 [Example 9, 1-(5-(tert-Butyl)isoxazol-3-yl)-3-(4-((8-(2-morpholinoethoxy)imidazo[1,2-b]pyridazin-3-yl)ethynyl)phenyl)urea]
AUC(0-inf) ([1]; iv, 1 mg/kg): 1390 ng·h/mL | AUC(0-t) ([1]; iv, 1 mg/kg): 1330 ng·h/mL | Tmax ([1]; iv, 1 mg/kg): 0.083 h | half-life ([1]; iv, 1 mg/kg): 1.7 h | Cmax ([1]; iv, 1 mg/kg): 793 ng/mL | Vd ([1]; iv, 1 mg/kg, read-out: Vss): 1.62 L/kg | bioavailability ([1]; po 5 mg/kg vs iv 1 or 2 mg/kg): 116% | AUC(0-inf) ([1]; po, 5 mg/kg): 8030 ng·h/mL | AUC(0-t) ([1]; po, 5 mg/kg): 8010 ng·h/mL | Tmax ([1]; po, 5 mg/kg): 2.67 h | half-life ([1]; po, 5 mg/kg): 2.85 h | Cmax ([1]; po, 5 mg/kg): 1090 ng/mL

Structure (SMILES): CC(C)(C)c1cc(NC(=O)Nc2ccc(C#Cc3ccc(OCCCN4C[C@@H]5OCCO[C@@H]5C4)cc3)cc2)no1 [Example 11, 1-(5-(tert-butyl)isoxazol-3-yl)-3-(4-((4-(3-((4aR,7aS)-tetrahydro-2H-[1,4]dioxino[2,3-c]pyrrol-6(3H)-yl)propoxy)phenyl)ethynyl)phenyl)urea]
IC50 (FLT3 kinase): 169 nM

Structure (SMILES): CC(C)(C)c1cc(NC(=O)Nc2ccc(C#Cc3ccc(OCCCN4CCOCC4)nc3)cc2)no1 [Example 17, 1-(5-(tert-Butyl)isoxazol-3-yl)-3-(4-((6-(3-morpholinopropoxy)pyridin-3-yl)ethynyl)phenyl) urea]
IC50 (MV-4-11 cell): 11.7 nM

Structure (SMILES): CC(C)(C)c1cc(NC(=O)Nc2ccc(C#Cc3ccc(OCCCN4CCC5(COC5)C4)cc3)cc2)no1 [Example 19, 1-(4-((4-(3-(2-Oxa-6-azaspiro[3.4]octan-6-yl)propoxy)phenyl)ethynyl)phenyl)-3-(5-(tert-butyl)isoxazol-3-yl)urea]
IC50 (MV-4-11 cell): 13.8 nM

Structure (SMILES): CC(C)(C)c1cc(NC(=O)Nc2ccc(C#Cc3ccc(OCCCN4CCOCC4)cc3)cc2)no1 [Example 21, 1-(5-(tert-Butyl)isoxazol-3-yl)-3-(4-((4-(3-morpholinopropoxy)phenyl)ethynyl)phenyl)urea]
IC50 (MV-4-11 cell): 2.8 nM

Structure (SMILES): CC(C)(C)c1cc(NC(=O)Nc2ccc(C#Cc3ccc(OCCCN4CCOCC4)cc3)cc2F)no1 [Example 81, 1-(5-(tert-Butyl)isoxazol-3-yl)-3-(2-fluoro-4-((4-(3-morpholinopropoxy)phenyl)ethynyl)phenyl)urea]
IC50 (MV-4-11 cell): 4.7 nM

Results, then the compound that gave them:

IC50 (MV-4-11 cell): 3 nM
Structure (SMILES): CC(C)(C)c1cc(NC(=O)Nc2ccc(C#Cc3ccc(OCCC[N+]4([O-])CCOCC4)cc3)cc2)no1 [Example 82, 4-(3-(4-((4-(3-(5-(tert-Butyl)isoxazol-3-yl)ureido)phenyl)ethynyl)phenoxy)propyl)morpholine 4-oxide]

IC50 (MV-4-11 cell): 2.3 nM
Structure (SMILES): CC(C)(C)c1cc(NC(=O)Nc2ccc(C#Cc3ccc(OCCC[N+]4([O-])CCOCC4)cc3F)cc2)no1 [Example 83, 4-(3-(4-((4-(3-(5-(tert-Butyl)isoxazol-3-yl)ureido)phenyl)ethynyl)-3-fluorophenoxy)propyl) morpholine 4-oxide]

IC50 (MV-4-11 cell): 2.1 nM
Structure (SMILES): CC(C)(CO)c1cc(NC(=O)Nc2ccc(C#Cc3ccc(OCCCN4CCOCC4)cc3)cc2)no1 [Example 84, 1-(5-(1-Hydroxy-2-methylpropan-2-yl)isoxazol-3-yl)-3-(4-((4-(3-morpholinopropoxy)phenyl)ethynyl)phenyl)urea]

IC50 (MV-4-11 cell): 1.6 nM
Structure (SMILES): CC(C)(CO)c1cc(NC(=O)Nc2ccc(C#Cc3ccc(OCCCN4CCOCC4)cc3F)cc2)no1 [Example 85, 1-(4-((2-Fluoro-4-(3-morpholinopropoxy)phenyl)ethynyl)phenyl)-3-(5-(1-hydroxy-2-methylpropan-2-yl)isoxazol-3-yl)urea]

IC50 (MV-4-11 cell): 0.9 nM
Structure (SMILES): CC(C)(C)c1cc(NC(=O)Nc2ccc(C#Cc3ccc(OCCCN4CCOCC4)c(O)c3)cc2)no1 [Example 86, 1-(5-(tert-Butyl)isoxazol-3-yl)-3-(4-((3-hydroxy-4-(3-morpholinopropoxy)phenyl)ethynyl)phenyl)urea]

IC50 (MV-4-11 cell): 25.5 nM
Structure (SMILES): CC(C)(C)c1cc(NC(=O)Nc2ccc(C#Cc3ccc(OCCCN4CCOCC4)cc3)cc2O)no1 [Example 87, 1-(5-(tert-butyl)isoxazol-3-yl)-3-(2-hydroxy-4-((4-(3-morpholinopropoxy)phenyl)ethynyl)phenyl)urea]

IC50 (MV-4-11 cell): 1.8 nM
Structure (SMILES): CC(C)(CO)c1cc(NC(=O)Nc2ccc(C#Cc3ccc(OCCC[N+]4([O-])CCOCC4)cc3)cc2)no1 [Example 88, 4-(3-(4-((4-(3-(5-(1-Hydroxy-2-methylpropan-2-yl)isoxazol-3-yl)ureido)phenyl)ethynyl)phenoxy)propyl)morpholine 4-oxide]

IC50 (MV-4-11 cell): 4.8 nM
Structure (SMILES): CC(C)(CO)c1cc(NC(=O)Nc2ccc(C#Cc3ccc(OCCC[N+]4([O-])CCOCC4)cc3F)cc2)no1 [Example 89, 4-(3-(3-Fluoro-4-((4-(3-(5-(1-hydroxy-2-methylpropan-2-yl)isoxazol-3-yl)ureido)phenyl)ethynyl)phenoxy)propyl)morpholine 4-oxide]
